# EP1222921B1, “Pharmaceutical compositions of tizoxanide and/or nitazoxanide” (Romark Laboratories, L.C., priority 1997, dated 1998)
# Several values for one entry are separate records, joined by “and”; a condition that tells them apart may be missing. Equal entries are not always repeated.
# Legend:
# Cryptosporidium parvum [1] = assay: Preliminary clinical trial in AIDS patients with chronic cryptosporidial diarrhea; assay type: in vivo; conditions: of 16 evaluable by the eighth week, oral 500 to 2000 mg daily
# Description: In a preliminary clinical trial, 30 AIDS patients with chronic cryptosporidial diarrhea were treated with oral nitazoxanide from 500 to 2000 mg daily. […] Twenty-eight people completed two or more weeks of therapy and 16 of those were evaluable for a therapeutic response by the eighth week of treatment. […] Six patients met both clinical and parasitological response criteria for benefit. Patients who received higher daily doses of drug for longer periods of time were more likely to have a positive response.
# Cryptosporidium parvum [2] = assay type: in vivo
# Description: An open-label study of nitazoxanide for AIDS-related cryptosporidial diarrhea documented decreased bowel movements among persons taking 500, 1000, 1500, or 2000 mg of the drug daily. […] Almost all participants had failed therapy with azithromycin or paromomycin.
# By the end of the study, 8 of 11 had completely eradicated the parasite and the other three had substantial reductions in oocyst levels. There was a trend toward better response with doses of 1000 mg daily or higher and with longer therapy. Two trial participants had urticarial skin rashes; more than 90 percent adhered to the study regimen for more than four weeks.
# MDBKF5D2 cell monolayers = assay: Toxicity testing assay (Example III), MTS/PMS; assay type: cell-based; conditions: cattle, 48 h
# Description: 200µl of medium containing nitazoxanide solution at the pre-mentioned concentrations and the proper controls were introduced into two wells of a 96 well plate containing confluent MDBKFD2 cell monolayers and two wells without monolayers. […] The plate was returned to the incubator in the dark to develop for 2 hours. At 2 hours, 100 µl of each supernatant was transferred to a new microtiter plate and read in the ELISA reader at 490 nm. Results were recorded and analyzed. […] (OD medium - OD drug x 100)/(OD medium) [formula] […]
# Fasciola hepatica = assay: In vitro culture of mature flukes
# Description: The in vitro efficacy of nitazoxanide and desacetyl-nitazoxanide was tested against Fasciola hepatica. Mature F. hepatica were recovered from the bile ducts of 3 calf livers condemned due to fasciolosis at the Louisiana Veterinary Medical Diagnostic Laboratory at the Hardy's Meat […], Bunkie, LA. Flukes were washed in sterile saline for 1 hour and transferred to sterile saline or RPMI (pH 7.4) for an additional 3 hours. Flukes were then held in sterile RPMI-rabbit serum (50:50 v/v) or sterile RPMI (pH 7.4) overnight at 37°C with 5% CO2. In vitro culture (37°C, 5% CO2) was done according to a modification of the method of Ibarra and Jenkins ([…]. 70:655-661, 1984). […] Only flukes that had normal activity and morphology were used. […] Two control flukes were included in each replicate, […] and one in unmedicated culture media […]. Flukes were examined for the effects of drug treatment as evidenced by death, motility disturbances or morpholgic changes as compared to untreated control flukes, using a backlighted panel and a lighted 3X magnifying lens.
# [3] = test system: immature (4-week/old) F. gigantica; assay: Experimentally infected rabbits, immature flukes; assay type: in vivo, Fasciola gigantica
# Description: Nitazoxanide was tested against immature and mature Fasciola gigantica in experimentally infected rabbits. Fasciola gigantica encysted metacercariae (EMC) were collected on cellophane sheet after 28-35 days from infection of L. calludi snails by Fasciola gigantica miracidium using the technique described by […] snails were exposed daily to artificial light, for 30 minutes, in clean dechlorinated tap water. The resulting encysted […]) were preserved at 4°C in a refrigerator for 5 to 8 days under the surface of water until they were used to infect experimental animals. Forty (40) Boscat rabbits, weighting 1.5 to 2 kg each, were included in the study and allocated to two treatment groups of 20 animals. Animals from Group 1 were orally infected with 35-40 encysted […] wrapped in a leaf of lettuce and pushed on the root of the tongue of the animals. The mouths of the animals were held closed by hand until the encysted metacercariae were swallowed. These Group 1 animals were used to test the efficacy of nitazoxanide against immature stages (4-5 weeks old) of Fasciola […]. Ten animals from Group 1 received 35 mg of nitazoxanide, morning and evening, for 7 consecutive days 4 weeks after their infection at the immature stage of the parasite cycle. The ten remaining animals in Group 1 were kept as untreated controls. All animals were fed with dry ration until the end of the experiment. Seven days after administration of the last dose of nitazoxanide, all rabbits from each group were sacrificed. The surface of the liver was examined for the presence of necrotic migrating furrows especially at the immature stage of the parasite cycle. These necrotic areas were examined using two surgical needles in order to extract the juvenile migrating flukes according to the technique described by El-Bahy. The livers were sliced in small pieces especially around the migrating furrows and macerated under a microscope in order to extract the existing flukes. The abdominal cavity and the visceral surfaces were washed with warm water. The water was then collected, sieved and examined for identification of juvenile flukes. All the collected parasites as well as parts of them were counted in both treated and untreated animal in both Groups 1 and 2. […] The efficacy of nitazoxanide was calculated by using the formula indicated below: % efficacy(a - b)/(a)x 100 [formula] Where: • a = the number of flukes recovered from feces in the control animals • b = the number of flukes recovered from feces in the treated animals.
# [4] = after 23 weeks, 500, 1000, 1500, or 2000 mg daily
# [5] = mean of 10 rabbits, 70 mg/day for 7 consecutive days
structure (smiles),measurement,setting,value
"CC(=O)Oc1ccccc1C(=O)Nc1ncc([N+](=O)[O-])s1 [Nitazoxanide, 2-(acetolyloxy)-N-(5-nitro 2-thiazoly) benzamide]",individuals with a marked reduction or eradication of the parasite in the stool,Cryptosporidium parvum [1],10
same,patients who met both clinical and parasitological response criteria,Cryptosporidium parvum [1],Six
same,people with the organism becoming undetectable,Cryptosporidium parvum [1],four
same,persons with a 50 percent or greater reduction in daily bowel movement frequency,Cryptosporidium parvum [1],12
same,complete clinical response (one to three predominantly formed bowel movements daily),Cryptosporidium parvum [2]; [4],9 of 13
same,partial clinical response,Cryptosporidium parvum [2]; [4],4 of 13
same,completely eradicated the parasite,Cryptosporidium parvum [2]; by the end of the study,8 of 11
same,substantial reductions in oocyst levels,"Cryptosporidium parvum [2]; by the end of the study, remaining of 11",three
same,%Tox - Percent toxicity to cells by the drug,MDBKF5D2 cell monolayers; 0.01 µg/ml,10.12%
same,Tox/OD,MDBKF5D2 cell monolayers; 0.01 µg/ml,1.617
same,%Tox - Percent toxicity to cells by the drug,MDBKF5D2 cell monolayers; 0.1 µg/ml,≤0%
same,Tox/OD,MDBKF5D2 cell monolayers; 0.1 µg/ml,1.878
same,%Tox - Percent toxicity to cells by the drug,MDBKF5D2 cell monolayers; 1 µg/ml,10.09%
same,Tox/OD,MDBKF5D2 cell monolayers; 1 µg/ml,1.618
same,%Tox - Percent toxicity to cells by the drug,MDBKF5D2 cell monolayers; 10 µg/ml,77.07%
same,Tox/OD,MDBKF5D2 cell monolayers; 10 µg/ml,.413
same,"effects on flukes (death, motility disturbances)",Fasciola hepatica; 1 µg treatment,"one fluke died by hour 16, three by hour 41 and five by hour 74; 3 flukes remained active at hour 91 and one fluke had activity at hour 115"
same,"effects on flukes (death, motility disturbances)",Fasciola hepatica; 3 µg treatment,"By 23 hours, only 2 sluggish flukes in the 3 µg group remained alive; these were dead by hour 41"
same,"effects on flukes (death, motility disturbances)",Fasciola hepatica; 5 µg treatment,only 3 flukes were active at hour 6 and none were active at 16 hours
same,"effects on flukes (death, motility disturbances)",Fasciola hepatica; 10 µg treatment,only one fluke survived to 16 hours
same,"effects on flukes (death, motility disturbances)",Fasciola hepatica; 25 µg treatment,all flukes were dead or moribund except one fluke at 1 hour in the 25 µg group it was dead at 3 hour
same,"effects on flukes (death, motility disturbances)",Fasciola hepatica; 50 µg treatment,all flukes were dead or moribund
same,"effects on flukes (death, motility disturbances)",Fasciola hepatica; 100 µg treatment,all flukes were dead or moribund
same,overall efficacy,[3]; 70 mg/day dose for 7 consecutive days,moderately effective
same,No. of flukes extracted from liver of Treated Rabbits,"[3]; individual rabbits No. 1-10, 35 mg morning and evening for 7 consecutive days, 4 weeks after infection",3 (5×) and 4 (4×) and 2
same,Efficacy %,"[3]; individual rabbits No. 1-10 versus untreated control, 35 mg morning and evening for 7 consecutive days",50% (4×) and 40% (3×) and 42% (2×) and 60%
same,"Efficacy %, Mean (means percentage of reduction)",[3]; [5],46.77%
same,"No. of flukes extracted from liver of Treated Rabbits, Mean",[3]; [5],3.3
same,"percentage of reduction, range","[3]; range over 10 rabbits, 70 mg/day for 7 consecutive days",40-60%
